Experimental data published in US20240018122A1, “PYRIDAZINYL AMINO DERIVATIVES AS ALK5 INHIBITORS” (CHIESI FARMACEUTICI S.P.A., priority 2020, published 2024).
Like-named read-outs stand apart in the source and are kept apart here.

Biological target: human ALK5 (Homo sapiens (Human), UniProt P36897)
Assay: ADP-GLO Kinases assay, inhibitory activity on ALK5
Type: biochemical
Description: The enzymatic activity of compounds of the present invention was monitored measuring the formation of ADP using the ADP-GLO Kinases assay. Following the incubation of the purified enzyme, a substrate and ATP, the produced ADP was converted into ATP, which in turn was converted into light by Ultra-Glo Luciferase. The luminescent signal positively correlated with ADP amount and kinase activity. […] The assay was performed in 384-well format and was validated using a selection of reference compounds that was tested in 11 point concentration-response curve.

[1] = purified recombinant human ALK5 2.6 nM, TGFβ1 peptide substrate, 25° C, 150 min incubation, ADP-Glo detection, read-out: ALK5 IC50

Sequence of human ALK5 (P36897 80-503 limits assumed): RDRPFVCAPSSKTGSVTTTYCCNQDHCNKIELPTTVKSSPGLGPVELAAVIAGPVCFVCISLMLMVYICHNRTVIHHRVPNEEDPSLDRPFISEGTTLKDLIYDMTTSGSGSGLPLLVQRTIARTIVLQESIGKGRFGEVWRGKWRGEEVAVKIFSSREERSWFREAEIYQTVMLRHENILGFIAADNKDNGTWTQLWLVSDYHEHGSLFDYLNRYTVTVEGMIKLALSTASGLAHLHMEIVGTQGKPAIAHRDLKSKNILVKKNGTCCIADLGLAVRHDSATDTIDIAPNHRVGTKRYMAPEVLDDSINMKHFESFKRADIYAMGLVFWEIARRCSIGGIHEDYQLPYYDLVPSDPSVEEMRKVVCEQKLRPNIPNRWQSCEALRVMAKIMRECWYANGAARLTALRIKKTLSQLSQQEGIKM

| SMILES | IC50 [1] [nM] | IC50 [nM] |
| --- | --- | --- |
| CN1CCN(C(=O)c2cc3c(Nc4cnnc(-c5cc(Cl)ccc5F)c4)ccnc3[nH]2)CC1 [Example 38, 6-(5-Chloro-2-Fluorophenyl)-N-[2-(4-Methylpiperazine-1-Carbonyl)-1H-Pyrrolo[2,3-13]Pyridin-4-Yl]Pyridazin-4-Amine] | 1 to 5 |  |
| CN1CCN(C(=O)COc2ccc3c(Nc4cnnc(-c5cc(Cl)ccc5F)c4)ccnc3c2)CC1 [Example 39, 2-[(4-{[6-(5-Chloro-2-Fluorophenyl)Pyridazin-4-Yl]Amino}Quinolin-7-Yl)Oxy]-1-(4-Methylpiperazin-1-Yl)Ethan-1-One] | 1 to 5 |  |
| Fc1ccc(Cl)cc1-c1cc(Nc2ccnc3cc(OCCN4CCN(CC(F)(F)F)CC4)ccc23)cnn1 [Example 41, N-[6-(5-Chloro-2-Fluorophenyl)Pyridazin-4-Yl]-7-{2-[4-(2,2,2-Trifluoroethyl)Piperazin-1-Yl]Ethoxy}Quinolin-4-Amine] | < 1 |  |
| CN(CCOc1ccc2c(Nc3cnnc(-c4cc(Cl)ccc4F)c3)ccnc2c1)C1COC1 [Example 42, N-[6-(5-Chloro-2-Fluorophenyl)Pyridazin-4-Yl]-7-{2-[Methyl(Oxetan-3-Yl)Amino]Ethoxy}Quinolin-4-Amine] | < 1 |  |
| CC(=O)N1CCCN(CCC(=O)Nc2cc(Nc3cnnc(-c4cc(Cl)ccc4F)c3)ccn2)C1 [Example 43, 3-(3-Acetyl-1,3-Diazinan-1-Yl)-N-(4-{[6-(5-Chloro-2-Fluorophenyl)Pyridazin-4-Yl]Amino}Pyridin-2-Yl)Propanamide] | 1 to 5 |  |
| CS(=O)(=O)N1CCCN(CCC(=O)Nc2cc(Nc3cnnc(-c4cc(Cl)ccc4F)c3)ccn2)C1 [Example 44, N-(4-{[6-(5-Chloro-2-Fluorophenyl)Pyridazin-4-Yl]Amino}Pyridin-2-Yl)-3-(3-Methanesulfonyl-1,3-Diazinan-1-Yl)Propanamide] | < 1 |  |
| CN1CCN(CCN(C)C(=O)Oc2ccc3c(Nc4cnnc(-c5cc(Cl)ccc5F)c4)ccnc3c2)CC1 [Example 45, 4-{[6-(5-Chloro-2-Fluorophenyl)Pyridazin-4-Yl]Amino}Quinolin-7-Yl N-Methyl-N-[2-(4-Methylpiperazin-1-Yl)Ethyl]Carbamate] |  | 1 to 5 |
| O=C(CCN1CCN(CC(F)(F)F)CC1)Nc1cc(Nc2cnnc(-c3cc(Cl)ccc3F)c2)ccn1 [Example 47, N-(4-{[6-(5-Chloro-2-Fluorophenyl)Pyridazin-4-Yl]Amino}Pyridin-2-Yl)-3-[4-(2,2,2-Trifluoroethyl)Piperazin-1-Yl]Propanamide] | 1 to 5 |  |
| Cc1nnc(-c2cc(Cl)ccc2F)cc1Nc1ccnc2cc(OCCN3CCN(C)CC3)ccc12 [Example 48, N-[6-(5-Chloro-2-Fluorophenyl)-3-Methylpyridazin-4-Yl]-7-[2-(4-Methylpiperazin-1-Yl)Ethoxy]Quinolin-4-Amine] | < 1 |  |
| Cc1nnc(-c2cc(Cl)ccc2F)cc1Nc1ccnc2[nH]c(C(=O)NCCN3CCN(C)CC3)cc12 [Example 49, 4-{[6-(5-Chloro-2-Fluorophenyl)-3-Methylpyridazin-4-Yl]Amino}-N-[2-(4-Methylpiperazin-1-Yl)Ethyl]-M-Pyrrolo[2,3-b]Pyridine-2-Carboxamide] | < 1 |  |
| Cc1nnc(-c2cc(Cl)ccc2F)cc1Nc1ccnc2[nH]c(C(=O)N(C)CCN3CCN(C)CC3)cc12 [Example 50, 4-{[6-(5-Chloro-2-Fluorophenyl)-3-Methylpyridazin-4-Yl]Amino}-N-Methyl-N-[2-(4-Methylpiperazin-1-Yl)Ethyl]-1H-Pyrrolo[2,3-b]Pyridine-2-Carboxamide] | < 1 |  |
| CN1CCC(CCN(C)C(=O)Oc2ccc3c(Nc4cnnc(-c5cc(Cl)ccc5F)c4)ccnc3c2)CC1 [Example 51, 4-{[6-(5-Chloro-2-Fluorophenyl)Pyridazin-4-Yl]Amino}Quinolin-7-Yl N-Methyl-N-[2-(1-Methylpiperidin-4-Yl)Ethyl]Carbamate] |  | 1 to 5 |
| CN1CCCN(CCCOc2ccc3c(Nc4cnnc(-c5cc(Cl)ccc5F)c4)ccnc3c2)C1 [Example 52, N-[6-(5-Chloro-2-Fluorophenyl)Pyridazin-4-Yl]-7-[3-(3-Methyl-1,3-Diazinan-1-Yl)Propoxy]Quinolin-4-Amine] | < 1 |  |
| CS(=O)(=O)CCN1CCN(C(=O)Oc2ccc3c(Nc4cnnc(-c5cc(Cl)ccc5F)c4)ccnc3c2)CC1 [Example 53, 4-{[6-(5-Chloro-2-Fluorophenyl)Pyridazin-4-Yl]Amino}Quinolin-7-Yl 4-(2-Methanesulfonylethyl)Piperazine-1-Carboxylate] |  | 1 to 5 |
| CN1CC[C@@H](OC(=O)c2ccc3c(Nc4cnnc(-c5cc(Cl)ccc5F)c4)ccnc3c2)C1 [Example 54, (3R)-1-Methylpyrrolidin-3-Yl 4-{[6-(5-Chloro-2-Fluorophenyl)Pyridazin-4-Yl]Amino}Quinoline-7-Carboxylate] | 1 to 5 |  |
| CN1C[C@@H]2CN(CCOc3ccc4c(Nc5cnnc(-c6cc(Cl)ccc6F)c5)ccnc4c3)C[C@@H]2C1 [Example 55, Cis N-[6-(5-Chloro-2-Fluorophenyl)Pyridazin-4-Yl]-7-(2-{5-Methyl-Octahydropyrrolo[3,4-c]Pyrrol-2-Yl}Ethoxy)Quinolin-4-Amine] | < 1 |  |

| SMILES | IC50 [1] [nM] | IC50 [nM] |
| --- | --- | --- |
| CC(=O)N1CCCN(CCOc2ccc3c(Nc4cnnc(-c5cc(Cl)ccc5F)c4)ccnc3c2)C1 [Example 56, 1-(3-{2-[(4-{[6-(5-Chloro-2-Fluorophenyl)Pyridazin-4-Yl]Amino}Quinolin-7-Yl)Oxy]Ethyl}-1,3-Diazinan-1-Yl)Ethan-1-One] | < 1 |  |
| O=C(Oc1ccc2c(Nc3cnnc(-c4cc(Cl)ccc4F)c3)ccnc2c1)N1CCN(CCO)CC1 [Example 57, 4-{[6-(5-Chloro-2-Fluorophenyl)Pyridazin-4-Yl]Amino}Quinolin-7-Yl 4-(2-Hydroxyethyl)Piperazine-1-Carboxylate] |  | 1 to 5 |
| CN1CC[C@H](OC(=O)c2ccc3c(Nc4cnnc(-c5cc(Cl)ccc5F)c4)ccnc3c2)C1 [Example 58, (3S)-1-Methylpyrrolidin-3-Yl 4-{[6-(5-Chloro-2-Fluorophenyl)Pyridazin-4-Yl]Amino}Quinoline-7-Carboxylate] | 1 to 5 |  |
| O=C(CCN1CCCN(CC(F)(F)F)C1)Nc1cc(Nc2cnnc(-c3cc(Cl)ccc3F)c2)ccn1 [Example 59] | 1 to 5 |  |
| COC(=O)CCN1CCN(CCOc2ccc3c(Nc4cnnc(-c5cc(Cl)ccc5F)c4)ccnc3c2)CC1 [Example 60, Methyl 3-(4-{2-[(4-{[6-(5-Chloro-2-Fluorophenyl)Pyridazin-4-Yl]Amino}Quinolin-7-Yl)Oxy]Ethyl}Piperazin-1-Yl)Propanoate] | < 1 |  |
| CN(C)CCN1CCN(C(=O)Oc2ccc3c(Nc4cnnc(-c5cc(Cl)ccc5F)c4)ccnc3c2)CC1 [Example 61, 4-{[6-(5-Chloro-2-Fluorophenyl)Pyridazin-4-Yl]Amino}Quinolin-7-Yl 4-[2-(Dimethylamino)Ethyl]Piperazine-1-Carboxylate] | < 1 |  |
| CN1CCCN(CCOc2ccc3c(Nc4cnnc(-c5cc(Cl)ccc5F)c4)ccnc3c2)C1 [Example 62, N-[6-(5-Chloro-2-Fluorophenyl)Pyridazin-4-Yl]-7-[2-(3-Methyl-1,3-Diazinan-1-Yl)Ethoxy]Quinolin-4-Amine] | < 1 |  |
| CNC(=O)CCN1CCN(CCOc2ccc3c(Nc4cnnc(-c5cc(Cl)ccc5F)c4)ccnc3c2)CC1 [Example 63, 3-(4-{2-[(4-{[6-(5-Chloro-2-Fluorophenyl)Pyridazin-4-Yl]Amino}Quinolin-7-Yl)Oxy]Ethyl}Piperazin-1-Yl)-N-Methylpropanamide] | < 1 |  |
| CN1CCC(CCN2CCN(C(=O)Oc3ccc4c(Nc5cnnc(-c6cc(Cl)ccc6F)c5)ccnc4c3)CC2)CC1 [Example 64, 4-{[6-(5-Chloro-2-Fluorophenyl)Pyridazin-4-Yl]Amino}Quinolin-7-Yl 4-[2-(1-Methylpiperidin-4-Yl)Ethyl]Piperazine-1-Carboxylate] | < 1 |  |
| Cc1nnc(-c2cc(Cl)ccc2F)cc1Nc1ccnc(NC(=O)CCCN2CCN(C)CC2)c1 [Example 65, N-(4-{[6-(5-Chloro-2-Fluorophenyl)-3-Methylpyridazin-4-Yl]Amino}Pyridin-2-Yl)-4-(4-Methylpiperazin-1-Yl)Butanamide] | < 1 |  |
| NCCN1CCN(CCOc2ccc3c(Nc4cnnc(-c5cc(Cl)ccc5F)c4)ccnc3c2)CC1 [Example 66, 7-{2-[4-(2-Aminoethyl)Piperazin-1-Yl]Ethoxy}-N-[6-(5-Chloro-2-Fluorophenyl)Pyridazin-4-Yl]Quinolin-4-Amine] | < 1 |  |
| CS(=O)(=O)NCCN1CCN(CCOc2ccc3c(Nc4cnnc(-c5cc(Cl)ccc5F)c4)ccnc3c2)CC1 [Example 67, N-[2-(4-{2-[(4-{[6-(5-Chloro-2-Fluorophenyl)Pyridazin-4-Yl]Amino}Quinolin-7-Yl)Oxy]Ethyl}Piperazin-1-Yl)Ethyl]Methanesulfonamide] | < 1 |  |
| CN(C)CCN1CCN(CCOc2ccc3c(Nc4cnnc(-c5cc(Cl)ccc5F)c4)ccnc3c2)CC1 [Example 68, N-[6-(5-Chloro-2-Fluorophenyl)Pyridazin-4-Yl]-7-[2-[4-[2-(Dim Ethylamino)Ethyl]Piperazin-1-Yl]Ethoxy]Quinolin-4-Amine] | < 1 |  |
| CC(=O)NCCN1CCN(CCOc2ccc3c(Nc4cnnc(-c5cc(Cl)ccc5F)c4)ccnc3c2)CC1 [Example 69, N-[2-(4-{2-[(4-{[6-(5-Chloro-2-Fluorophenyl)Pyridazin-4-Yl]Amino}Quinolin-7-Yl)Oxy]Ethyl}Piperazin-1-Yl)Ethyl]Acetamide] | < 1 |  |
| CN1CCN(CCC2CCN(C(=O)Oc3ccc4c(Nc5cnnc(-c6cc(Cl)ccc6F)c5)ccnc4c3)CC2)CC1 [Example 70, 4-{[6-(5-Chloro-2-Fluorophenyl)Pyridazin-4-Yl]Amino}Quinolin-7-Yl 4-[2-(4-Methylpiperazin-1-Yl)Ethyl]Piperidine-1-Carboxylate] |  | 1 to 5 |
